Results: patent US4933347A, “Diamidines and bis(imidazolines) for the treatment of and prophylaxis against pneumocystis carinii pneumonia” (University of North Carolina at Chapel Hill, priority 1988, dated 1990)

Columns and labels:
Pneumocystis carinii = test: Treatment of Pneumocystis carinii pneumonia in Sprague-Dawley rats (extent of disease by histologic score); format: in vivo, male Sprague-Dawley rats; settings: for Extent of Disease by Histologic Score: number of animals with score 0.5 / Extent of Disease by Histologic Score: number of animals with score 1 / Extent of Disease by Histologic Score: number of animals with score 2 / Extent of Disease by Histologic Score: number of animals with score 3 / Extent of Disease by Histologic Score: number of animals with score 4: 14 days; for Extent of Disease by Histologic Score: number of animals with score 0.5 / Extent of disease by histologic score (combined): number of animals in scoring group 0.5: 0.5 = <10 cysts found per 2 sections; for Extent of Disease by Histologic Score: number of animals with score 1 / Extent of disease by histologic score (combined): number of animals in scoring group 1: 1 = scattered cysts, <5% of lung involved; for Extent of Disease by Histologic Score: number of animals with score 2 / Extent of disease by histologic score (combined): number of animals in scoring group 2: 2 = scattered cysts; for Extent of Disease by Histologic Score: number of animals with score 2: 5-10% lung involved or small foci of infection; for Extent of Disease by Histologic Score: number of animals with score 3 / Extent of disease by histologic score (combined): number of animals in scoring group 3: 3 = scattered cysts; for Extent of Disease by Histologic Score: number of animals with score 3: 10-50% of lung involved with some intense areas of infection; for Extent of Disease by Histologic Score: number of animals with score 4: 4 = >50% of lung involved with many intense areas of focal infection; for Extent of disease by histologic score (combined): number of animals in scoring group 0.5 / Extent of disease by histologic score (combined): number of animals in scoring group 1 / Extent of disease by histologic score (combined): number of animals in scoring group 2 / Extent of disease by histologic score (combined): number of animals in scoring group 3 / Extent of disease by histologic score (combined): number of animals in scoring group 4: Table XII composite; for Extent of disease by histologic score (combined): number of animals in scoring group 2: 5-10% of lung involved; for Extent of disease by histologic score (combined): number of animals in scoring group 3: 10-50% of lung involved; for Extent of disease by histologic score (combined): number of animals in scoring group 4: 4 = >50% of lung involved
[1] = Toxicity of amidines in rats (standard laboratory procedure); format: in vivo
Experimental: Compounds having the structure represented by Formula I were synthesized in accordance with the appropriate procedures discussed previously. The reaction schemes shown in Charts I-III specifically identify the methodology used to synthesize the compounds of the respective examples. The compounds which were synthesized are shown in Table IA and the elemental analysis and melting points of the compounds are shown in Table IB. Most of the compounds were tested for toxicity in rats using standard laboratory procedure and the results of that toxicity testing are shown in Table XII. The compounds of Examples 31, 32, and 34 were not synthesized but may be synthesized in the general manner discussed previously.

[2] = dose as in value, else not given in Table XIII (10 mg/kg test dose)

| Structure (SMILES) | Extent of Disease by Histologic Score: number of animals with score 0.5 (Pneumocystis carinii; 5 mg/kg i.v. daily) [animals] | Extent of Disease by Histologic Score: number of animals with score 1 (Pneumocystis carinii; 5 mg/kg i.v. daily) [animals] | Extent of Disease by Histologic Score: number of animals with score 2 (Pneumocystis carinii; 5 mg/kg i.v. daily) [animals] | Extent of Disease by Histologic Score: number of animals with score 3 (Pneumocystis carinii; 5 mg/kg i.v. daily) [animals] | Extent of Disease by Histologic Score: number of animals with score 4 (Pneumocystis carinii; 5 mg/kg i.v. daily) [animals] | Extent of disease by histologic score (combined): number of animals in scoring group 0.5 (Pneumocystis carinii; tested at 5 mg/kg) [animals] | Extent of disease by histologic score (combined): number of animals in scoring group 1 (Pneumocystis carinii; tested at 5 mg/kg) [animals] | Extent of disease by histologic score (combined): number of animals in scoring group 2 (Pneumocystis carinii; tested at 5 mg/kg) [animals] | Extent of disease by histologic score (combined): number of animals in scoring group 3 (Pneumocystis carinii; tested at 5 mg/kg) [animals] | Extent of disease by histologic score (combined): number of animals in scoring group 4 (Pneumocystis carinii; tested at 5 mg/kg) [animals] | Extent of Disease by Histologic Score: number of animals with score 0.5 (Pneumocystis carinii; 2.5 mg/kg i.v. daily) [animals] | Extent of Disease by Histologic Score: number of animals with score 1 (Pneumocystis carinii; 2.5 mg/kg i.v. daily) [animals] | Extent of Disease by Histologic Score: number of animals with score 2 (Pneumocystis carinii; 2.5 mg/kg i.v. daily) [animals] | Extent of Disease by Histologic Score: number of animals with score 3 (Pneumocystis carinii; 2.5 mg/kg i.v. daily) [animals] | Extent of Disease by Histologic Score: number of animals with score 4 (Pneumocystis carinii; 2.5 mg/kg i.v. daily) [animals] | Extent of disease by histologic score (combined): number of animals in scoring group 0.5 (Pneumocystis carinii; tested at 2.5 mg/kg) [animals] | Extent of disease by histologic score (combined): number of animals in scoring group 1 (Pneumocystis carinii; tested at 2.5 mg/kg) [animals] | Extent of disease by histologic score (combined): number of animals in scoring group 2 (Pneumocystis carinii; tested at 2.5 mg/kg) [animals] | Extent of disease by histologic score (combined): number of animals in scoring group 3 (Pneumocystis carinii; tested at 2.5 mg/kg) [animals] | Extent of disease by histologic score (combined): number of animals in scoring group 4 (Pneumocystis carinii; tested at 2.5 mg/kg) [animals] | also measured |
| --- | --- | --- | --- | --- | --- | --- | --- | --- | --- | --- | --- | --- | --- | --- | --- | --- | --- | --- | --- | --- | --- |
| N=C(N)c1ccc(NCCCCCNc2ccc(C(=N)N)cc2)cc1 [Example 17] |  |  |  |  |  |  |  |  |  |  |  |  |  |  |  |  |  |  |  |  | Extent of Disease by Histologic Score: number of animals with score 0.5 (Pneumocystis carinii; 10 mg/kg i.v. daily): 1 animals; Extent of Disease by Histologic Score: number of animals with score 1 (Pneumocystis carinii; 10 mg/kg i.v. daily): 2 animals; Extent of Disease by Histologic Score: number of animals with score 2 (Pneumocystis carinii; 10 mg/kg i.v. daily): 3 animals; Extent of Disease by Histologic Score: number of animals with score 3 (Pneumocystis carinii; 10 mg/kg i.v. daily): 1 animals; Extent of Disease by Histologic Score: number of animals with score 4 (Pneumocystis carinii; 10 mg/kg i.v. daily): 0 animals; Efficacy in treating PCP compared with pentamidine (Pneumocystis carinii; 10 mg/kg unless otherwise noted): better than or equal to pentamidine; Extent of disease by histologic score (combined): number of animals in scoring group 0.5 (Pneumocystis carinii; 10 mg/kg): 1 animals; Extent of disease by histologic score (combined): number of animals in scoring group 1 (Pneumocystis carinii; 10 mg/kg): 2 animals; Extent of disease by histologic score (combined): number of animals in scoring group 2 (Pneumocystis carinii; 10 mg/kg): 3 animals; Extent of disease by histologic score (combined): number of animals in scoring group 3 (Pneumocystis carinii; 10 mg/kg): 1 animals; Extent of disease by histologic score (combined): number of animals in scoring group 4 (Pneumocystis carinii; 10 mg/kg): 0 animals; Efficacy in treating PCP compared with related compounds of the series (Pneumocystis carinii; effect of chain length or substituent): least effective; Deaths by day 13 ([1]; rat, in vivo): 2 deaths |
| N=C(N)c1ccc(NCCCCCNc2ccc(C(=N)N)cc2[N+](=O)[O-])c([N+](=O)[O-])c1 [Example 18] | 1 | 3 | 0 | 2 | 1 | 1 | 3 | 0 | 2 | 1 |  |  |  |  |  |  |  |  |  |  | Efficacy in treating PCP compared with control (Pneumocystis carinii; compound at 5 mg/kg): better than the control; Efficacy in treating PCP compared with pentamidine (Pneumocystis carinii; compound at 5 mg/kg): less effective than pentamidine; Toxicity of amidines: Effect [1, 2]: Acute toxicity - death at 10 mg/kg |
| N=C(N)c1ccc(OCCCCCCOc2ccc(C(=N)N)cc2N)c(N)c1 [Example 22] | 0 | 1 | 4 | 3 | 0 | 0 | 1 | 4 | 3 | 0 |  |  |  |  |  |  |  |  |  |  | Efficacy in treating PCP compared with pentamidine (Pneumocystis carinii; compound at 5 mg/kg): significantly less effective than the other compounds or pentamidine; Toxicity of amidines: Effect [1, 2]: Acute toxicity - death at 10 mg/kg; Toxicity (words in running text) ([1]; rat, in vivo): toxic |
| N=C(N)c1ccc(OCCCCOc2ccc(C(=N)N)cc2Cl)c(Cl)c1 [Example 24] |  |  |  |  |  |  |  |  |  |  | 0 | 1 | 2 | 3 | 2 | 0 | 1 | 2 | 3 | 2 | Toxicity of amidines: Effect ([1]; rat, in vivo, 2.5 mg/kg): None |
| N=C(N)c1ccc(OCCCCCOc2ccc(C(=N)N)cc2Cl)c(Cl)c1 [Example 25] |  |  |  |  |  |  |  |  |  |  | 0 | 0 | 0 | 4 | 4 | 0 | 0 | 0 | 4 | 4 | Toxicity of amidines: Effect ([1]; rat, in vivo, 2.5 mg/kg): None |
| N=C(N)c1ccc(NCCCNc2ccc(C(=N)N)cc2[N+](=O)[O-])c([N+](=O)[O-])c1 [Example 35] | 0 | 0 | 0 | 2 | 6 | 0 | 0 | 0 | 2 | 6 |  |  |  |  |  |  |  |  |  |  | Toxicity of amidines: Effect ([1]; tested at 5 mg/kg): no toxicity |
| N=C(N)c1ccc(OCCCCOc2ccc(C(=N)N)cc2[N+](=O)[O-])c([N+](=O)[O-])c1 [Example 38] |  |  |  |  |  |  |  |  |  |  | 0 | 0 | 3 | 1 | 4 | 0 | 0 | 3 | 1 | 4 | Toxicity of amidines: Effect [1, 2]: Acute toxicity at 10 mg/kg and 5 mg/kg; Toxicity of amidines: Effect ([1]; tested at 2.5 mg/kg): no toxicity |
| CN1CCN=C1c1ccc(OCCCCOc2ccc(C3=NCCN3C)cc2)cc1 [Example 41] |  |  |  |  |  |  |  |  |  |  | 0 | 0 | 2 | 4 | 2 | 0 | 0 | 2 | 4 | 2 | Toxicity of amidines: Effect ([1]; rat, in vivo, 2.5 mg/kg): no toxicity |
